Experimental data as given in article PMC11472320, “Computationally Driven Discovery of a BCR-ABL1 Kinase Inhibitor with Activity in Multidrug-Resistant Chronic Myeloid Leukemia” (Journal of Medicinal Chemistry, 2024).
Where “and” joins values, the source holds several entries; their conditions need not be identical. Equal values may be shown once. Read-outs that look alike come from different tables or passages of the source.

Columns and labels:
[1] = cited from earlier work
MDCKII-MDR1 cells [2] = conditions: cited from earlier work
[3] = cited from earlier work; remark: listed apart in the source
[4] = Abraham ANMR value by NMR (CDCl3 vs DMSO-d6); assay type: physicochemical
Text: Previously, intramolecular N–H–F hydrogen bonds (HBs) have been proposed as a strategy to reduce P-gp-mediated efflux and improve passive permeability, as highlighted in the discovery of the brain-penetrant EGFR inhibitor, AZD-3759 (Figure 2A).[37]−[40] […] Consistent with this work, we conducted an NMR study of the EGFR inhibitor 7a and the BCR-ABL1 inhibitor 8a in deuterated chloroform (CDCl3) and in the more polar, HB-accepting dimethyl sulfoxide (DMSO-d6). […] This finding is further supported by the lack of ^1JNH-F coupling (≤1 Hz) in 7a and 8a, as contrasted with bona fide intramolecular HBs to fluorine, which typically have ^1JNH-F coupling constants >10 Hz as exemplified by 9 with its ^1JNH-F of 19.1 Hz.[41],[43]

Lipophilicity logD7.4 = assay type: physicochemical; conditions: pH 7.4
BCR-ABL1 wt = BCR-ABL1 wt (Homo sapiens, UniProt P00519); experiment: KinaseProfiler enzymatic radiometric kinase assay; conditions: read-out: Kinase IC50 BCR-ABL1 wt; [ATP] = 10 µM, n = 2
[5] = Metabolic stability in hepatocytes; assay type: in vitro ADME, human; conditions: for hepatocyte CLint: both sexes, read-out: HEPClint (H); for hepatocyte CLint / t1/2 (H): human hepatocytes
Text: Metabolic stability in hepatocytes
Table S4. Hepatocyte details used in the hepatocyte stability assay.
Human Hepatocytes, Mixed-Gender BiolVT (Cat No. X008001)
Mouse Hepatocytes, Male-Gender BiolVT (Cat No. M005052)

MDCKII-MDR1 cells [6] = experiment: MDCKII-MDR1 permeability; conditions: for MDCKII-MDR1 Efflux Ratio: n = 2
in vitro [7] = conditions: human, Caco-2
[8] = Plasma protein binding by equilibrium dialysis; assay type: in vitro ADME; conditions: human plasma
cSRC wt = cSRC wt (Homo sapiens, UniProt P12931); experiment: KinaseProfiler enzymatic radiometric kinase assay
Caco-2 cells = experiment: Caco-2 permeability
mutant BCR-ABL1 kinases = experiment: Biochemical kinase inhibition, summary statements; design: species or system human; conditions: read-out: IC50 against mutant BCR-ABL1 kinases
Ph+ CML = experiment: Activity in Ph+ CML (Figure 2B annotation); assay type: cell-based; conditions: annotation in Figure 2B
in vitro [9] = conditions: dog, MDCK-MDR1
MDR1 = experiment: in vitro; conditions: dog, MDCK-MDR1
MDR1 (P-gp) = experiment: in vitro; conditions: dog, MDCK-MDR1
Aqueous solubility = assay type: physicochemical; conditions: pH 7.4
K562 cells = experiment: Cell viability assay (CellTiter-Glo); assay type: cell-based, human
PFPK5(P.falciparum) = biological target: T1, PFPK5(P.falciparum) (Plasmodium falciparum, UniProt P61075); experiment: KINOMEScan; assay type: binding; conditions: read-out: Percent Control
T1 construct: purchased Eurofins DiscoverX (KINOMEscan)

PRKCI = biological target: T2, PRKCI (Homo sapiens, UniProt P41743); experiment: KINOMEScan; assay type: binding; conditions: read-out: Percent Control
T2 construct: purchased Eurofins DiscoverX (KINOMEscan)

PFCDPK1(P.falciparum) = biological target: T3, PFCDPK1(P.falciparum) (Plasmodium falciparum, UniProt P62344); experiment: KINOMEScan; assay type: binding; conditions: read-out: Percent Control
T3 construct: purchased Eurofins DiscoverX (KINOMEscan)

PRKCE = biological target: T4, PRKCE (Homo sapiens, UniProt Q02156); experiment: KINOMEScan; assay type: binding; conditions: read-out: Percent Control
T4 construct: purchased Eurofins DiscoverX (KINOMEscan)

PKNB(M.tuberculosis) = biological target: T5, PKNB(M.tuberculosis) (Mycobacterium tuberculosis, UniProt P9WI81); experiment: KINOMEScan; assay type: binding; conditions: read-out: Percent Control
T5 construct: purchased Eurofins DiscoverX (KINOMEscan)

PRKCD = biological target: T6, PRKCD (Homo sapiens, UniProt Q05655); experiment: KINOMEScan; assay type: binding; conditions: read-out: Percent Control
T6 construct: purchased Eurofins DiscoverX (KINOMEscan)

PRKD1 = biological target: T7, PRKD1 (Homo sapiens, UniProt Q15139); experiment: KINOMEScan; assay type: binding; conditions: read-out: Percent Control
T7 construct: purchased Eurofins DiscoverX (KINOMEscan)

PRKCH = biological target: T8, PRKCH (Homo sapiens, UniProt P24723); experiment: KINOMEScan; assay type: binding; conditions: read-out: Percent Control
T8 construct: purchased Eurofins DiscoverX (KINOMEscan)

PRKD3 = biological target: T9, PRKD3 (Homo sapiens, UniProt O94806); experiment: KINOMEScan; assay type: binding; conditions: read-out: Percent Control
T9 construct: purchased Eurofins DiscoverX (KINOMEscan)

PRKCQ = biological target: T10, PRKCQ (Homo sapiens, UniProt Q04759); experiment: KINOMEScan; assay type: binding; conditions: read-out: Percent Control
T10 construct: purchased Eurofins DiscoverX (KINOMEscan)

PRP4 = biological target: T11, PRP4 (Homo sapiens, UniProt Q13523); experiment: KINOMEScan; assay type: binding; conditions: read-out: Percent Control
T11 construct: purchased Eurofins DiscoverX

CDC2L5 = biological target: T12, CDC2L5 (Homo sapiens, UniProt Q14004); experiment: KINOMEScan; assay type: binding; conditions: read-out: Percent Control
T12 construct: purchased Eurofins DiscoverX (KINOMEscan)

[10] = cited from earlier work; remark: listed apart in the source

BCR-ABL1 wt, sequence (P00519 27-1130 limits assumed): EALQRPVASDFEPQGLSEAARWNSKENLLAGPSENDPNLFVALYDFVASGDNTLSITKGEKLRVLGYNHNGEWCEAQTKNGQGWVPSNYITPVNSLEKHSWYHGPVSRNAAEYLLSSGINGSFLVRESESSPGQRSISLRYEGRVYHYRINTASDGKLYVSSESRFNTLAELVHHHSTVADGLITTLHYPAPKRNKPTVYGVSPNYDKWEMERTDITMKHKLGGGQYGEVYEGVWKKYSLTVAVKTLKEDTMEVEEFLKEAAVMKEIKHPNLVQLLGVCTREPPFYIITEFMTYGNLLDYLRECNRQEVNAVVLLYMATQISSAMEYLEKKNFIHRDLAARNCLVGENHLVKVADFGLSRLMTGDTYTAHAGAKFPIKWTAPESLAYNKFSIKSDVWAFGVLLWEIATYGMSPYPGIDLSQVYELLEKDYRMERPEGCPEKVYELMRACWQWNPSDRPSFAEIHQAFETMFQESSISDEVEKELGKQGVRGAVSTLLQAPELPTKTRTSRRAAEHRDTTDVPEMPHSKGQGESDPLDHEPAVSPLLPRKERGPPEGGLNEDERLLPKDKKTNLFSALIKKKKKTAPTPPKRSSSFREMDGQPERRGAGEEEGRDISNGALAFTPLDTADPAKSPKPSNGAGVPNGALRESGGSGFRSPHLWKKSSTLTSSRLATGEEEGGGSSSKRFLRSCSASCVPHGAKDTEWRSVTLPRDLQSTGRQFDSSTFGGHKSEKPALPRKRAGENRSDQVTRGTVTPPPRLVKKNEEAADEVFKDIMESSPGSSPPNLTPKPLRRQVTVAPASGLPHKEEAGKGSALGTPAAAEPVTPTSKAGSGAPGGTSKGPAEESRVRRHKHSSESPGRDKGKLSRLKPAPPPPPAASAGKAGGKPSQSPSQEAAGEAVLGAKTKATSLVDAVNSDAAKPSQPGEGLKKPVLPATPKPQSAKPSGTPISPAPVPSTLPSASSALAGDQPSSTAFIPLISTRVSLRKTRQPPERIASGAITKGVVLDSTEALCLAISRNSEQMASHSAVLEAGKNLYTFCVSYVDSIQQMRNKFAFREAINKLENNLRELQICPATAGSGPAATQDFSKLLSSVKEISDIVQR
cSRC wt, sequence (P12931 whole entry): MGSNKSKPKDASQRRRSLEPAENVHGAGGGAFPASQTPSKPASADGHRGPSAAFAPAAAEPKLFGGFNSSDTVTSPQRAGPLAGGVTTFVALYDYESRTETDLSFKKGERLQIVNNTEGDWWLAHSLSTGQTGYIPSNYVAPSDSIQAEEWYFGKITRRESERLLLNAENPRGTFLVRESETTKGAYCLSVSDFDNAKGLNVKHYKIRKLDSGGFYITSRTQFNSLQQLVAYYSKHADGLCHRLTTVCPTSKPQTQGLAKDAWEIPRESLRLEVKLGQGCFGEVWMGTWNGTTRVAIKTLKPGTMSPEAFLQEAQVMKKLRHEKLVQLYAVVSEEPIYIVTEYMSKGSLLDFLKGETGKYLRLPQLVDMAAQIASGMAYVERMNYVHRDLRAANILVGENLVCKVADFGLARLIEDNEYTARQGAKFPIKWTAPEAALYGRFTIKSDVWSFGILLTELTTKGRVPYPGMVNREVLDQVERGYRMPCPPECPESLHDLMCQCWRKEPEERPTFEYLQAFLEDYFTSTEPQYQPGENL
T11 sequence (Q13523 whole entry): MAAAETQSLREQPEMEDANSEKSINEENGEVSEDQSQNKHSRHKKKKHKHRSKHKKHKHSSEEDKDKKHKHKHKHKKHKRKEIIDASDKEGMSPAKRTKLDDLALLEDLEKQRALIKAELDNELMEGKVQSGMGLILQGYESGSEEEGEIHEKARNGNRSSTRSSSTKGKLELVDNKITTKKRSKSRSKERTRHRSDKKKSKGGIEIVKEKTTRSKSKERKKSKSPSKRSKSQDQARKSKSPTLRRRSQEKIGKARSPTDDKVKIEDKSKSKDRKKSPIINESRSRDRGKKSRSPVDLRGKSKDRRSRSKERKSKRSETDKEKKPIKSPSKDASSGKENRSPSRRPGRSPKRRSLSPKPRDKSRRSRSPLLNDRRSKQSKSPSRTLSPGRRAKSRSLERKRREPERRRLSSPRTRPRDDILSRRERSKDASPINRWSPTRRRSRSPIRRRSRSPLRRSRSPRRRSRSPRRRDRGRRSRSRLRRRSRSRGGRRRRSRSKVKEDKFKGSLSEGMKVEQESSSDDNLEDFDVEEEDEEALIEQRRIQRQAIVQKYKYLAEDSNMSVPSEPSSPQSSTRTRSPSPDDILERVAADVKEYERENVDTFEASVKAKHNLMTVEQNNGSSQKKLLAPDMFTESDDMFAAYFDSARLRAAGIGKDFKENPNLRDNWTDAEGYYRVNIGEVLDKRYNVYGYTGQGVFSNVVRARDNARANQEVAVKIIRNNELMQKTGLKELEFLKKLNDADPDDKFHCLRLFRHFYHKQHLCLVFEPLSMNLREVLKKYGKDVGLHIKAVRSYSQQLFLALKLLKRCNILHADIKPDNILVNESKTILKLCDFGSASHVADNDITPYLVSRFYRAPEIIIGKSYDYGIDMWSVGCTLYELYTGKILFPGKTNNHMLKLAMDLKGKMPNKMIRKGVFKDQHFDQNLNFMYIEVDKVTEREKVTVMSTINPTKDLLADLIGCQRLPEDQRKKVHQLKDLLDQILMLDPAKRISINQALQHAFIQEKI
T12 sequence (Q14004 whole entry): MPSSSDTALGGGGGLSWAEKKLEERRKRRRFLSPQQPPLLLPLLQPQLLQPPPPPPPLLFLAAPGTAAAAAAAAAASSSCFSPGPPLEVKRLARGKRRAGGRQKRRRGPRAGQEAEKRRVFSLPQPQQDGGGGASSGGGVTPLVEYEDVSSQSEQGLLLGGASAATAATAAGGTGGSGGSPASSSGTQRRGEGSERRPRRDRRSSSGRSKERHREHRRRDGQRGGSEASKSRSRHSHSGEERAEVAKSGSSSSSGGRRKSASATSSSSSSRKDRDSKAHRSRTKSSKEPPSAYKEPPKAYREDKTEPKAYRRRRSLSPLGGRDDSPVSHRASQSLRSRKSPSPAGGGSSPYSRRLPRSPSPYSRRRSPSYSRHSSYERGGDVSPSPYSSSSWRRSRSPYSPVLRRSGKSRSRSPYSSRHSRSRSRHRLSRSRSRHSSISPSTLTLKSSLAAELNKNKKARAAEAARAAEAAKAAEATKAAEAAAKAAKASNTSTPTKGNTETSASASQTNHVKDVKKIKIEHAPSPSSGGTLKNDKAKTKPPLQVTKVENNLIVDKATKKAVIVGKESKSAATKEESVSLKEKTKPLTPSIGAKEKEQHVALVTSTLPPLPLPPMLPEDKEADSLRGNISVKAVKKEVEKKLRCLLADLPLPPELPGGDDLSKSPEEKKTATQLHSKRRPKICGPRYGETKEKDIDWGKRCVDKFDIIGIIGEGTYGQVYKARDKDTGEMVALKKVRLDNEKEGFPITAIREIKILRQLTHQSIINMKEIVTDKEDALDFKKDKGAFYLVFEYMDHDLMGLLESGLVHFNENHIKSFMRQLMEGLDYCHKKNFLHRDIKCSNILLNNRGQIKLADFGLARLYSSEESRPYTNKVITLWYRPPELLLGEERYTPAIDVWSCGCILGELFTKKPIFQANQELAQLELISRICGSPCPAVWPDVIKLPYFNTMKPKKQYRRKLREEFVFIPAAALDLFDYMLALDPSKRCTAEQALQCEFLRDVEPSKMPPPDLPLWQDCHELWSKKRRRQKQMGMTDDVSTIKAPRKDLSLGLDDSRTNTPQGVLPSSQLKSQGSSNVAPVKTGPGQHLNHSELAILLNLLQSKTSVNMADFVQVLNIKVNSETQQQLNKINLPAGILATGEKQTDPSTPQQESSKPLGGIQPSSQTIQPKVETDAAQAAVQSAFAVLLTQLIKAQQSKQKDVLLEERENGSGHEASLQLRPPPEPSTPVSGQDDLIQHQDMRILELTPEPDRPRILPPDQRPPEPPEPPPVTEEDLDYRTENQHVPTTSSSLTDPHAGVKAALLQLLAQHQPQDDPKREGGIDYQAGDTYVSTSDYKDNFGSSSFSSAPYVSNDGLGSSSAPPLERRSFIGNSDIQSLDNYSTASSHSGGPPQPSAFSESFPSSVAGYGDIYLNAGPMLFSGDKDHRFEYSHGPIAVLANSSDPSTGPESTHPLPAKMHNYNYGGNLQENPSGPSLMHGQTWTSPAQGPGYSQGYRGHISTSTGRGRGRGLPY
T2 sequence (P41743 whole entry): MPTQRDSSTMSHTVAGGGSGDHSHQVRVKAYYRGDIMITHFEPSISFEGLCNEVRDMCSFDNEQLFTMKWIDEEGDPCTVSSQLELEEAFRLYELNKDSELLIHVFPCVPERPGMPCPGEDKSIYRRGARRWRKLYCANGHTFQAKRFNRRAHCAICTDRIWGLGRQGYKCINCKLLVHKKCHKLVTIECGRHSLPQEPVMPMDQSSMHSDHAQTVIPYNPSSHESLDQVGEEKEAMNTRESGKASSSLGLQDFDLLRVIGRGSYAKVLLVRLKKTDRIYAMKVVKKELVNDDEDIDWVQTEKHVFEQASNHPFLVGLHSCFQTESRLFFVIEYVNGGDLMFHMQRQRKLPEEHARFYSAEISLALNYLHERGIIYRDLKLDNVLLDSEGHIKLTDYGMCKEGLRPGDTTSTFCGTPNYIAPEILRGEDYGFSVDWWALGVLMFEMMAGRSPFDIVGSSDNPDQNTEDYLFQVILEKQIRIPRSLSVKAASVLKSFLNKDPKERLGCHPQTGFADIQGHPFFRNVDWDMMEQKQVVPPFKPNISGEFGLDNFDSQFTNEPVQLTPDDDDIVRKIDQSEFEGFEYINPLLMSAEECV
T1 sequence (P61075 whole entry): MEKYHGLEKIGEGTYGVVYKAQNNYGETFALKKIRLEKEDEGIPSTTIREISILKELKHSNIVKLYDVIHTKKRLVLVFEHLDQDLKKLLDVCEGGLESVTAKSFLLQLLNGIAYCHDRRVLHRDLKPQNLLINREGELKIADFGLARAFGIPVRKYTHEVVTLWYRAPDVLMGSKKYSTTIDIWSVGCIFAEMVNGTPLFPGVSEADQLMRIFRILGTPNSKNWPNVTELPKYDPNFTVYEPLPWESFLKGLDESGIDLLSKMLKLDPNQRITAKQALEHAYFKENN

Row | SMILES | Abraham ANMR Value (aniline N-H) [4] | logD (Lipophilicity logD7.4) | Remaining Percentages ([5]; 0.5 min) [%] | Remaining Percentages ([5]; 15 min) [%] | Remaining Percentages ([5]; 30 min) [%] | Remaining Percentages ([5]; 60 min) [%] | Remaining Percentages ([5]; 90 min) [%] | Remaining Percentages ([5]; 120 min) [%] | hepatocyte CLint [5] [µL/min/1e6 cells] | t1/2 (H) [5] [min] | Recovery% (BL-AP) (MDCKII-MDR1 cells [6]; Table S7) [%] | Papp A→B (in vitro [7]) [×10⁻⁶ cm/s] | Papp B→A (in vitro [7]) [×10⁻⁶ cm/s] | efflux ratio (in vitro [7]) | Recovery% (BL-AP) (Caco-2 cells; Table S9) [%] | efflux ratio (Caco-2 cells; Table S9) | Caco-2 Papp (a-b) (Caco-2 cells) [×10⁻⁶ cm/s] | Caco-2 Papp (b-a) (Caco-2 cells) [×10⁻⁶ cm/s] | recovery (in vitro [9]) [%] | Papp A→B (MDR1) [×10⁻⁶ cm/s] | further results
1 | COc1cc(Nc2c(C#N)cnc3cc(OCCON4CCN(C)CC4)c(OC)cc23)c(Cl)cc1Cl [5a] | – | – | – | – | – | – | – | – | – | – | – | – | – | – | – | – | – | – | – | – | Micronucleus [1]: Negative
2 | COc1cc2ncnc(Nc3cccc(Cl)c3F)c2cc1OCCON1CCN(C)CC1 [7a] | > 0.30 and 0.31 | – | – | – | – | – | – | – | – | – | – | – | – | – | – | – | – | – | – | – | P-gp efflux status (MDCKII-MDR1 cells [2]): Not a P-gp Substrate; AMES [3]: Negative; Micronucleus [1]: Negative
3 | COc1cc(Nc2c(C#N)cnc3cc(OCCON4CCN(C)CC4)c(OC)cc23)c(F)cc1Cl [8a, 4-((4-Chloro-2-fluoro-5-methoxyphenyl)amino)-6-methoxy-7-(2-((4-methylpiperazin-1-yl)oxy)ethoxy)quinoline-3-carbonitrile] | > 0.30 and 0.40 | 3.4 | 100.00 | 69.28 | 52.48 | 29.45 | 15.72 | 9.48 | 40.5 | 34.2 | 64.87 | 1.94 | 12.1 | 6.4 | 72.31 | 6.22 | 1.9 | 12.1 | 79.8 | 0.73 | IC50 (BCR-ABL1 wt): 1 nM; P-gp efflux status (MDCKII-MDR1 cells [6]): P-gp Substrate; MDCKII-MDR1 Efflux Ratio (MDCKII-MDR1 cells [6]): 27.6; recovery (in vitro [7]): 61.2%; fraction unbound ([8]; both sexes): 0.0558; recovery ([8]; both sexes): 99.9%; remaining at 6 h ([8]; both sexes, 6 h): 92.7%; %Unbound [8]: 5.58%; IC50 (cSRC wt): 2 nM; IC50 (mutant BCR-ABL1 kinases): < 1 nM; Activity in Ph+ CML (Ph+ CML): Moderate Activity; efflux ratio (MDR1): 26.4; Papp A→B (MDR1 (P-gp)): 0.7 ×10⁻⁶ cm/s; Papp B→A (MDR1 (P-gp)): 19.3 ×10⁻⁶ cm/s; Aq. Sol. (Aqueous solubility): 43 µM
4 | COc1cc2c(Nc3cccc(Cl)c3F)c(C#N)cnc2cc1OCCON1CCN(C)CC1 [11a, 4-((3-Chloro-2-fluorophenyl)amino)-6-methoxy-7-(2-((4-methylpiperazin-1-yl)oxy)ethoxy)quinoline-3-carbonitrile] | 0.40 | 3.3 | 100.00 | 82.49 | 66.92 | 45.06 | 29.85 | 18.60 | 27.9 | 49.7 | 85.59 | 3.66 | 27.4 | 7.4 | 80.51 | 7.49 | 3.7 | 27.4 | 71.6 | 7.16 | P-gp efflux status (MDCKII-MDR1 cells [6]): Moderate P-gp Substrate; MDCKII-MDR1 Efflux Ratio (MDCKII-MDR1 cells [6]): 4.1; recovery (in vitro [7]): 60.5%; Activity in Ph+ CML (Ph+ CML): Poor Activity; Papp B→A (MDR1): 29.6 ×10⁻⁶ cm/s; efflux ratio (MDR1): 4.15; Papp A→B (MDR1 (P-gp)): 7.2 ×10⁻⁶ cm/s; Papp B→A (MDR1 (P-gp)): 29.6 ×10⁻⁶ cm/s; Aq. Sol. (Aqueous solubility): 14 µM
5 | COc1cc(Nc2c(C#N)cnc3cc(OCCON4CCN(C)CC4)c(OC)cc23)ccc1Cl [14a] | – | 3.1 | 100.00 | 83.13 | 68.12 | 50.16 | 37.41 | 25.52 | 22.3 | 62.3 | 77.51 | 1.99 | 37.4 | 18.7 | 92.37 | 18.96 | 2 | 37.4 | 75.4 | 4.08 | IC50 (BCR-ABL1 wt): < 1 nM; efflux ratio (MDCKII-MDR1 cells [6]; Table S7): 6.05; IC50 (cSRC wt): 2 nM; Recovery% (AP-BL) (Caco-2 cells; Table S9): 65.43%; IC50 (K562 cells; Homo sapiens, K562, 72 h, read-out: K562 Cell Line IC50 (95% CI), 72 h, n = 3, unadjusted for FBS): 218 nM; IC50 (K562 cells; read-out: K562 Cell Line IC50 (95% CI), 72 h, n = 3, unadjusted for FBS): 186 nM; Papp B→A (MDR1): 24.7 ×10⁻⁶ cm/s; efflux ratio (MDR1): 6; Papp A→B (MDR1 (P-gp)): 4.1 ×10⁻⁶ cm/s; Papp B→A (MDR1 (P-gp)): 24.7 ×10⁻⁶ cm/s; Aq. Sol. (Aqueous solubility): 7 µM
6 | COc1cc2c(Nc3ccc(Cl)c(OC)n3)c(C#N)cnc2cc1OCCON1CCN(C)CC1 [16a, 4-((5-Chloro-6-methoxypyridin-2-yl)amino)-6-methoxy-7-(2-((4-methylpiperazin-1-yl)oxy)ethoxy)quinoline-3-carbonitrile] | – | – | – | – | – | – | – | – | – | – | – | – | – | – | – | – | – | – | – | – | remaining binding at 1 µM (PFPK5(P.falciparum)): 100%; remaining binding at 1 µM (PRKCI): 61%; remaining binding at 1 µM (PFCDPK1(P.falciparum)): 18%; remaining binding at 1 µM (PRKCE): 70%; remaining binding at 1 µM (PKNB(M.tuberculosis)): 53%; remaining binding at 1 µM (PRKCD): 42%; remaining binding at 1 µM (PRKD1): 78%; remaining binding at 1 µM (PRKCH): 84%; remaining binding at 1 µM (PRKD3): 58%; remaining binding at 1 µM (PRKCQ): 30%; remaining binding at 1 µM (PRP4): 33%; remaining binding at 1 µM (CDC2L5): 100%
7 | Fc1c2c(cc3ncnc(Nc4ccccc4)c13)OCCO2 [compound 9] | – | – | – | – | – | – | – | – | – | – | – | – | – | – | – | – | – | – | – | – | Abraham ANMR Value [10]: 0.10
8 | COc1c2c(cc3ncnc(Nc4ccccc4)c13)OCCO2 [compound 10] | – | – | – | – | – | – | – | – | – | – | – | – | – | – | – | – | – | – | – | – | Abraham ANMR Value [10]: 0.02
